The text below walks through data of patent US20210299079A1, “MONOMETHYL FUMARATE-CARRIER CONJUGATES AND METHODS OF THEIR USE” (Flagship Pioneering Innovations V, Inc., priority 2018, published 2021).

The structures appear in SMILES notation. Structures can show the parent of a compound that is named as a salt.

One data set has as its system MIP-1β. As to the kind of experiment: Neutrophil Chemokine Production Assay: MIP-1β. It counts as cell-based. The note with it: human neutrophils, 12 h. Here is the method: (§1) A volume 25 mL of human blood was layered over 15 mL of Histopaque®-1077 and centrifuged at 500 g, R^T, for 30 min with no break applied to the centrifuge. The PBMC band and Histopaque®-1077 layer were removed leaving behind the bottom red layer which was mixed with 40 mL of 1× red blood cell (RBC) lysis buffer (Sigma-Aldrich) was and split into two 50 mL tubes. The volume for both fractions was brought to 50 mL with RBC lysis buffer, mixed by inversion, and then incubated at RT for 10 min. Solutions were centrifuged at 250 g, for 10 min at RT and the supernatant liquids removed. The reddish pellets were re-suspended in 1 mL of RBC lysis buffer and combined. The cell suspension was incubated for 5 min at RT in RBC lysis buffer. After incubation 45 mL of Hanks Balanced Salt Solution with no calcium, magnesium or phenol red (HBSS—) was added, the cell suspension was spun (250 g for 10 min at RT), and supernatant liquids were removed. The white pellet was re-suspended in 1 mL of HBSS—, and cell counts were determined. The neutrophil cell suspension was brought to a concentration of 1.11e6 cells/mL in RPMI complete (Sigma-Aldrich), and 180 μL of cell suspension was transferred to all wells within a sterile 96-well tissue culture treated plate resulting in 2.0×10^5 cells/well. […] After incubation, 10 μL of 2 μg/mL LPS solution in RPMI complete was added to each well except for control wells, which received an additional 10 μL of media. Cells were incubated for 12 h (37° C., 5% CO2), after which plates were centrifuged at 250 g, RT, for 5 min and supernatant liquids were obtained and stored at −80° C. until analyzed via Luminex® Multiplex Assay for various chemokines and cytokines. Three data points were acquired from two different blood donors and averaged.

Another data set concerns MIP-1α. As to the kind of experiment: Neutrophil Chemokine Production Assay: MIP-1α. It counts as cell-based. The note with it: human neutrophils, 12 h. How it is done:
as §1

Another data set relates to IL-8. As to the kind of experiment: Neutrophil Chemokine Production Assay: IL-8. The format is cell-based. The note with it: human neutrophils, 12 h. How it is done:
as §1

Data set [1] in a line: In vitro Colonic Material Stability Assay. It counts as in vitro ADME. The note with it: colonic material slurry in YCFAC media, anaerobic, 1 or 10 μM. Here is the method:
Assay 3. In vitro Colonic Material Stability Assay. This assay was used to assess the stability of a conjugate in a large intestine. All experiments were performed in an anaerobic chamber containing 90% nitrogen, 5% hydrogen and 5% carbon dioxide. Colonic material was resuspended as a slurry (15% w/v final concentration) in pre-reduced, anaerobically sterilized dilution blanks (Anaerobe Systems AS-908). The colonic material was then inoculated into 96 well plates containing YCFAC media (Anaerobe Systems AS-680) or other suitable media (6.7 μL slurry into 1 mL total media). Compounds or groups of compounds were added to each individual well to reach a final analyte concentration of 1 or 10 μM, and the material was mixed by pipetting. Sample was removed after set timepoints (0, 120, 240, 480, 1440, 2880 minutes after initiation of the assay), quenched with acetonitrile containing internal standard, and analyzed by LC/MS.

Data set [2] in a line: Stability of conjugates in Simulated Gastric Fluid (SGF). The note with it: SGF pH 1.6 with pepsin, 37° C., 1 μM compound. The format is in vitro ADME. The method in brief: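 Compound at 1 μM (from 1 mM DMSO stock) in pH 1.6 NaCl medium with FaSSIF powder and 0.1 mg/mL pepsin, mixed at 37° C. Aliquots quenched with equal volume acetonitrile at T0 and regular intervals; LC/MS gives degradation rate.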

Data set [3] in a line: Stability of conjugates in Simulated Intestinal Fluid (SIF). The note with it: SIF pH 6.7 with pancreatin, 37° C., 1 μM compound. The format is in vitro ADME. Put shortly: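 Compounds at 1 μM in fresh simulated intestinal fluid: FaSSIF powder in pH 6.7 phosphate buffer with pancreatin. Agitated at 37 °C; aliquots taken at T0 and regular intervals, quenched with 1 volume acetonitrile. Degradation rates determined by LC/MS.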

A short description of data set [4]: Gastrointestinal (GI) Exposure to Monomethylfumarate (MMF) (Study 2). The note with it: mouse, samples of Study 1, single oral dose. It counts as in vivo, CD-1 mice. Here is the method:
(§2) In order to measure propionate concentrations along the GI track, CD-1 mice were orally administered a single dose of deuterated sodium propionate, Compound 3 comprising deuterated propionate, or Compound 6 comprising deuterated propionate (Propionate-d3, Compound 3-d12, and Compound 6-d9, respectively; suspension, 1% (w/v) methyl cellulose in deionized water). The amounts of compound dosed were normalized to provide approximately equimolar amounts of […] (Propionate-d3 at 62 mg/kg, Compound 3-d12 at 110 mg/kg, and Compound 6-d9 at 91 mg/kg). […] Blood samples were collected in K2EDTA tubes and stored on wet ice no more than 30 min and then further processed to plasma. GI samples were placed into separate labeled, pre-weighted collection tubes and frozen before analysis. Brain samples were homogenized prior to analysis. Samples were subsequently worked up and analyzed by LC-MS/MS for deuterated propionate concentration. Propionate concentrations versus time for different tissues are depicted in FIGS. 4A-4H and 5A-5C.
Samples from Example 6, Study 1 were also analyzed by LC-MS/MS for monomethylfumarate concentrations. MMF concentrations versus time for different tissues are depicted in FIGS. 6A-6F.

Data set [5] in a line: Gastrointestinal (GI) Exposure to Propionate (Study 1). It counts as in vivo, CD-1 mice. The note with it: mouse; for Propionate-d3 AUClast / Propionate-d3 Tmax: single oral dose: Propionate-d3 62 mg/kg, Compound 3-d12 110 mg/kg, Compound 6-d9 91 mg/kg. How it is done: as §2

Take `CC(O)CC(=O)O` (stereo not drawn) [β-hydroxybutyric acid]: the “% MIP-1β (DMSO + LPS = 100%)” value in the data set on MIP-1β (Conc. 200.0 μM) and with MIP-1β (Conc. 2000.0 μM) was “+ (+ = <90% Vehicle)” throughout. Moreover, the “% MIP-1α (Vehicle + LPS = 100%)” value is on record as “− (− = >90% Vehicle)” in the data set with MIP-1α (Conc. 200.0 μM) and “++ (++ = <70% Vehicle)” in the data set with MIP-1α (Conc. 2000.0 μM). In addition, the “% IL-8 (Vehicle + LPS = 100%)” value in the data set with IL-8 (Conc. 200.0 μM) is recorded as “− (− = >90% Vehicle)”; with IL-8 (Conc. 2000.0 μM) it was “+ (+ = <90% Vehicle)”.

Regarding `CCCC(=O)O[C@@H]1O[C@H](COC(=O)/C=C/C(=O)OC)[C@@H](OC(=O)CCC)[C@H](OC(=O)CCC)[C@H]1OC(=O)CCC` [Compound 23, Methyl (((2R,3R,4S,5R,6S)-3,4,5,6-tetrakis(butyryloxy)tetrahydro-2H-pyran-2-yl)methyl) fumarate], in data set [1], the “Assay 3 (% Remaining at 24 h)” value is “A (A: <25% of the tested compound remaining)”. For the same molecule, the “Assay 1 (SGF) (% Remaining @ 1 hour)” value in data set [2] is reported as “B (B: 25-75% of the tested compound remaining)”. The “Assay 2 (SIF) (% @ Remaining 4 hours)” value in data set [3] is recorded as “A (A: <25% of the tested compound remaining)”.

Regarding `CCCC(=O)OC[C@H]1O[C@@H](OC(=O)/C=C/C(=O)OC)[C@H](OC(=O)CCC)[C@@H](OC(=O)CCC)[C@@H]1OC(=O)CCC` [Compound 10, Methyl ((2S,3R,4S,5R,6R)-3,4,5-tris(butyryloxy)-6-((butyryloxy)methyl)tetrahydro-2H-pyran-2-yl) fumarate], in data set [1], the “Assay 3 (% Remaining at 24 h)” value was “B (B: 25-75% of the tested compound remaining)”. Besides, in data set [2], the “Assay 1 (SGF) (% Remaining @ 1 hour)” value was “B (B: 25-75% of the tested compound remaining)”. In data set [3], the “Assay 2 (SIF) (% @ Remaining 4 hours)” value is reported as “B (B: 25-75% of the tested compound remaining)”.

Turning to `CCCC(=O)O[C@H]1O[C@H](COC(=O)/C=C/C(=O)OC)[C@@H](OC(=O)CCC)[C@H](OC(=O)CCC)[C@H]1OC(=O)CCC` [Compound 40, 1-methyl 4-[(2R,3R,4S,5R,6R)-3,4,5,6-tetrakis(butanoyloxy)oxan-2-yl]methyl (2E)-but-2-enedioate], the “Assay 3 (% Remaining at 24 h)” value in data set [1] is reported as “A (A: <25% of the tested compound remaining)”. Further, in data set [2], the “Assay 1 (SGF) (% Remaining @ 1 hour)” value is “B (B: 25-75% of the tested compound remaining)”. In addition, in data set [3], the “Assay 2 (SIF) (% @ Remaining 4 hours)” value was “A (A: <25% of the tested compound remaining)”.

`CCCC(=O)O[C@@H]1[C@@H](OC(=O)CCC)[C@H](C)O[C@H](OC(=O)/C=C/C(=O)OC)[C@@H]1OC(=O)CCC` [Compound 14, Methyl ((2R,3R,4R,5S,6S)-3,4,5-tris(butyryloxy)-6-methyltetrahydro-2H-pyran-2-yl) fumarate]: the “Assay 3 (% Remaining at 24 h)” value in data set [1] was “C (C: >75% of the tested compound remaining)”. For the same molecule, the “Assay 1 (SGF) (% Remaining @ 1 hour)” value in data set [2] is “C (C: >75% of the tested compound remaining)”. Moreover, the “Assay 2 (SIF) (% @ Remaining 4 hours)” value in data set [3] was “A (A: <25% of the tested compound remaining)”.

For the molecule `CCCC(=O)O[C@@H]1[C@@H](OC(=O)CCC)[C@@H](OC(=O)/C=C/C(=O)OC)OC[C@H]1OC(=O)CCC` [Compound 8, Methyl ((2R,3R,4S,5R)-3,4,5-tris(butyryloxy)tetrahydro-2H-pyran-2-yl) fumarate], the “Assay 3 (% Remaining at 24 h)” value in data set [1] was “C (C: >75% of the tested compound remaining)”. Further, in data set [2], the “Assay 1 (SGF) (% Remaining @ 1 hour)” value is recorded as “C (C: >75% of the tested compound remaining)”. In data set [3], the “Assay 2 (SIF) (% @ Remaining 4 hours)” value is reported as “A (A: <25% of the tested compound remaining)”.

As to `CCCC(=O)O[C@@H]1[C@@H](OC(=O)CCC)[C@H](OC(=O)/C=C/C(=O)OC)O[C@H](CO)[C@H]1OC(=O)CCC` [Compound 38, 1-methyl (2S,3R,4S,5R,6R)-3,4,5-tris(butanoyloxy)-6-(hydroxymethyl)oxan-2-yl (2E)-but-2-enedioate], the “Assay 3 (% Remaining at 24 h)” value in data set [1] was “A (A: <25% of the tested compound remaining)”. In data set [2], the “Assay 1 (SGF) (% Remaining @ 1 hour)” value was “C (C: >75% of the tested compound remaining)”. Further, in data set [3], the “Assay 2 (SIF) (% @ Remaining 4 hours)” value is “A (A: <25% of the tested compound remaining)”.

Consider `[2H]C([2H])([2H])CC(=O)OCC1OC(OC(=O)C=CC(=O)OC)C(OC(=O)CC([2H])([2H])[2H])C(OC(=O)CC([2H])([2H])[2H])C1OC(=O)CC([2H])([2H])[2H]` (stereo not drawn) [Compound 3-d12], for which the “MMF AUClast” value in data set [4] (Cecum) was 297 nmol·h/g; in data set [4] (Distal Colon), 568 nmol·h/g; in data set [4] (Distal Intestine) it was 156 nmol·h/g; in data set [4] (Proximal Colon), 465 nmol·h/g; in data set [4] (Proximal Intestine) it was 56.4 nmol·h/g; in data set [4] (Stomach) it was 3180 nmol·h/g. In addition, the “MMF Tmax” value was found to be 2.00 h in data set [4] (Cecum); 4.00 h in data set [4] (Distal Colon); 1.00 h in data set [4] (Distal Intestine); 2.00 h in data set [4] (Proximal Colon); 0.50 h in data set [4] (Proximal Intestine); 1.00 h in data set [4] (Stomach). The “Propionate-d3 AUClast” value in data set [5] (Brain) worked out at 1.18 nmol·h/g; in data set [5] (Cecum) it was 4010 nmol·h/g; in data set [5] (Distal Colon), 2310 nmol·h/g; in data set [5] (Distal Intestine) it was 3880 nmol·h/g; in data set [5] (Proximal Colon) it was 2910 nmol·h/g; in data set [5] (Proximal Intestine), 3160 nmol·h/g. Further, the “Propionate-d3 AUClast” value in data set [5] (Stomach) stood at 4950 nmol·h/g. For the same molecule, the “Propionate-d3 Tmax” value amounted to 0.25 h in data set [5] (Brain); 2.00 h in data set [5] (Cecum); 4.00 h in data set [5] (Distal Colon); 1.00 h in data set [5] (Distal Intestine); 2.00 h in data set [5] (Proximal Colon); 0.25 h in data set [5] (Proximal Intestine). For the same molecule, in data set [5] (Stomach), the “Propionate-d3 Tmax” value was found to be 1.00 h. The “region where the highest concentrations (Cmax) of propionate-d3 were observed” value in data set [5] (single oral dose, GI tissues) was “intestines (proximal and distal)”.
